Square brackets hold non-standard residues; d marks the D form. Ends that are not written are not given here. Peptide text beside a SMILES is read from it.
Legend:
Type in all cases: in vivo
Aedes aegypti larvae [1] = experiment: Effect of feeding TMOF-R analogues on Aedes aegypti larvae (LC50); settings: fed in microtiter plates with yeast particles for 5 to 6 days; read-out: LC50 (mM ± S.E.M.)
Method: TMOF analogues (5 to 8 amino acids in length, and polymers of these analogues) in which Arg was added at the C-terminus were evaluated to determine their effect on larval growth and development. A series of analogues were synthesized and tested by feeding them to mosquito larvae at concentrations of (0.5 to 5.0 mg/ml; Table 4). Concentrations of 2.0 to 0.065 mg/ml were used to feed mosquito larvae and calculate the Lethal Dose at 50% mortality (LD50; Table 4) of the TMOF analogues. […] In both cases larval death and trypsin biosynthesis inhibition was noted (Table 4 and 5). […] The advantage of using short analogues connected by Arg is that they can be digested in the gut into short TMOF analogues that can penetrate the midgut much faster than longer analogues.
Individual, newly hatched Aedes aegypti larvae were maintained in separate microtiter wells on a diet of autoclaved yeast (1 mg/ml). The diet was supplemented with TMOF analogues (Table 4). An identical number of larvae were maintained on yeast served as a control. […] All control groups survived and larval growth and development were normal. Larvae that were fed TMOF analogues had increased mortality, particularly when the larvae where fed the concentrations of the analogues higher than 2 mg/ml (Table 4).
Since larvae swallow only a small portion of the yeast particles that adsorbed the analogues it is assumed that approximately I to 20 ng are taken orally at the high concentrations. Using the various concentrations a lethal concentration that caused 50% mortality (LC50) for the mosquito larvae was calculated (Table 4). The results presented in Table 4 clearly indicate that the short TMOF-R analogues are very effective, especially the (DPAR)4 (SEQ ID NO. 61) polymer that is broken into 4 DPARs (SEQ ID NO. 60) in the gut.

trypsin biosynthesis = experiment: Effect of injected TMOF-R analogues on trypsin biosynthesis in Heliothis virescens (BApNA); settings: 2nd instar larvae, 24 hours after injection
Method: Individual second instar larvae of H. virescens were injected with TMOF-R analogues (10 to 0.25 μg per larva) and maintained in separate plastic cups on artificial diet. Twenty-four hours after the injections 3 groups of larvae (3 per group) were assayed for trypsin biosynthesis using BApNA (trypsin specific substrate; Table 5).

Aedes aegypti larvae [2] = experiment: Effect of TMOF and its analogue peptides on mosquito larvae (feeding, LD50); settings: newly hatched larvae on autoclaved yeast 1 mg/ml, microtiter plates, 7 days
From the text: TMOF can traverse the gut epithelium, enter the hemolymph and bind a gut receptor (Borovsky, D. and F. Mahmood (1995) “Feeding the mosquito Aedes aegypti with TMOF and its analogs; effect on trypsin biosynthesis and egg development,” Regulatory Peptides57:273-281; Borovsky, et al. (1994) “Characterization and localization of mosquito-gut receptors for trypsin modulating oostatic factor using complementary peptide immunochemistry” FASEB J. 8:350-355.). […] To find out if truncated TMOF peptides have an effect on larval growth and development, a series of peptides were synthesized and tested by feeding them to mosquito larvae at concentrations of 0 to 5.0 mg/ml (Table 3). Individual, newly hatched Aedes aegypti larvae were maintained in separate microtiter wells on a diet of autoclaved yeast (1 mg/ml). The diet was supplemented with TMOF peptides (Table 3). An identical number of larvae maintained on yeast served as a control. […] All control groups survived and larval growth and development was normal. Since larvae swallow only a small portion of the yeast particles that adsorbed the peptides, it is assumed that approximately 1 to 20 ng are taken orally at the high concentrations.

Molecule	LD50 mM ± S.E.M. (Aedes aegypti larvae [2])	further results
YDPAR [YDPAR]	–	LC50 (Aedes aegypti larvae [1]): 0.12 ± 0.07 mM; Inhibition (% ± S.E.M.) of trypsin biosynthesis (trypsin biosynthesis; 0.5 μg/injection): 1 ± 0.07%; Inhibition (% ± S.E.M.) of trypsin biosynthesis (trypsin biosynthesis; 1 μg/injection): 39 ± 2%; Inhibition (% ± S.E.M.) of trypsin biosynthesis (trypsin biosynthesis; 10 μg/injection): 33.5 ± 9%
N[C@@H](Cc1ccc(O)cc1)C(=O)N[C@@H](CC(=O)O)C(=O)O [YD] (H-Tyr-Asp-OH; N-terminus and C-terminus assumed)	1.24 ± 0.06 mM	–
N[C@@H](CC(=O)O)C(=O)N[C@@H](Cc1ccc(O)cc1)C(=O)N1CCC[C@H]1C(=O)O [DYP] (H-Asp-Tyr-Pro-OH; N-terminus and C-terminus assumed)	1.27 ± 0.17 mM	–
C[C@H](N)C(=O)N[C@@H](CC(=O)O)C(=O)N1CCC[C@H]1C(=O)O [ADP] (H-Ala-Asp-Pro-OH; N-terminus and C-terminus assumed)	>6.6 mM	–
YEPAP [YEPAP]	0.35 ± 0.02 mM	–
N[C@@H](Cc1ccc(O)cc1)C(=O)N[C@@H](CO)C(=O)N[C@@H](Cc1ccccc1)C(=O)O [YSF] (H-Tyr-Ser-Phe-OH; N-terminus and C-terminus assumed)	1.08 ± 0.12 mM	–
YDPAFR [YDPAFR]	–	LC50 (Aedes aegypti larvae [1]): 0.15 ± 0.023 mM; Inhibition (% ± S.E.M.) of trypsin biosynthesis (trypsin biosynthesis; 10 μg/injection): 0 ± 0%
YDLAP [YDLAP]	0.6 ± 0.05 mM	–
C[C@H](NC(=O)[C@@H]1CCCN1C(=O)[C@@H](N)CC(=O)O)C(=O)O [DPA] (H-Asp-Pro-Ala-OH)	0.4 ± 0.03 mM	–
N[C@H](Cc1ccc(O)cc1)C(=O)N[C@@H](CC(=O)O)C(=O)N1CCC[C@H]1C(=O)O [(D)YDP] (H-[dY]-Asp-Pro-OH; N-terminus and C-terminus assumed)	0.51 ± 0.05 mM	–
C[C@H](NC(=O)[C@@H]1CCCN1C(=O)[C@@H](CC(=O)O)NC(=O)[C@@H](N)Cc1ccc(O)cc1)C(=O)N1CCC[C@H]1C(=O)O [Y(D)DPAP] (H-Y[dD]PAP-OH; N-terminus and C-terminus assumed)	1.2 ± 0.3 mM	–
C[C@H](NC(=O)[C@@H]1CCCN1C(=O)[C@@H](N)CC(=O)O)C(=O)N[C@@H](CCCNC(=N)N)C(=O)O [DPAR] (H-DPAR-OH)	–	LC50 (Aedes aegypti larvae [1]): 0.46 ± 0.014 mM; Inhibition (% ± S.E.M.) of trypsin biosynthesis (trypsin biosynthesis; 1 μg/injection): 17 ± 2%; Inhibition (% ± S.E.M.) of trypsin biosynthesis (trypsin biosynthesis; 10 μg/injection): 100%
YDPFP [YDPFP]	1.7 ± 0.4 mM	–
YSPAP [YSPAP]	1.4 ± 0.03 mM	–
C[C@H](NC(=O)[C@@H]1CCCN1C(=O)[C@H](CC(=O)O)NC(=O)[C@H](N)Cc1ccc(O)cc1)C(=O)N1CCC[C@H]1C(=O)O [(D)YDPAP] (H-[dY]DPAP-OH; N-terminus and C-terminus assumed)	0.56 ± 0.03 mM	–
N[C@@H](Cc1ccc(O)cc1)C(=O)N[C@@H](CC(=O)O)C(=O)N1CCC[C@H]1C(=O)O [YDP] (H-Tyr-Asp-Pro-OH; N-terminus and C-terminus assumed)	2.3 ± 0.4 mM	–
C[C@H](N)C(=O)N1CCC[C@H]1C(=O)N[C@@H](C)C(=O)O [APA] (H-Ala-Pro-Ala-OH; N-terminus and C-terminus assumed)	1.0 ± 0.07 mM	–
FDPAP [FDPAP]	0.37 ± 0.15 mM	–
ADPAP [ADPAP]	2.0 ± 0.36 mM	–
N[C@@H](Cc1ccc(O)cc1)C(=O)N[C@@H](CC(=O)O)C(=O)NCC(=O)O [YDG] (H-Tyr-Asp-Gly-OH; N-terminus and C-terminus assumed)	0.95 ± 0.11 mM	–
YDPAA [YDPAA]	1.6 ± 0.13 mM	–
YDPAP [YDPAP, reference compound]	1.64 ± 0.03 mM	–
N[C@@H](CC(=O)O)C(=O)N[C@@H](Cc1ccc(O)cc1)C(=O)O [DY] (H-Asp-Tyr-OH; N-terminus and C-terminus assumed)	3.0 ± 0.8 mM	–
N=C(N)NCCC[C@H](NC(=O)[C@@H]1CCCN1C(=O)[C@H](CC(=O)O)NC(=O)[C@@H](N)Cc1ccc(O)cc1)C(=O)O [YDPR] (H-YDPR-OH; N-terminus and C-terminus assumed)	–	LC50 (Aedes aegypti larvae [1]): 0.24 ± 0.026 mM
N[C@@H](Cc1ccc(O)cc1)C(=O)N[C@@H](CC(=O)O)C(=O)N[C@@H](Cc1ccccc1)C(=O)O [YDF] (H-Tyr-Asp-Phe-OH; N-terminus and C-terminus assumed)	0.97 ± 0.11 mM	–

Molecule	LD50 mM ± S.E.M. (Aedes aegypti larvae [2])	further results
YDFAP [YDFAP]	0.74 ± 0.13 mM	–
DPARDPARDPARDPAR [(DPAR)4]	–	LC50 (Aedes aegypti larvae [1]): 0.048 ± 0.002 mM; Inhibition (% ± S.E.M.) of trypsin biosynthesis (trypsin biosynthesis; 0.5 μg/injection): 3 ± 0.3%; Inhibition (% ± S.E.M.) of trypsin biosynthesis (trypsin biosynthesis; 1 μg/injection): 35 ± 7%; Inhibition (% ± S.E.M.) of trypsin biosynthesis (trypsin biosynthesis; 10 μg/injection): 58 ± 36%
C[C@H](NC(=O)[C@H](C)NC(=O)[C@@H](N)CC(=O)O)C(=O)O [DAA] (H-Asp-Ala-Ala-OH; N-terminus and C-terminus assumed)	0.91 ± 0.06 mM	–
YAPAP [YAPAP]	0.54 ± 0.13 mM	–
YDPAPR [YDPAPR]	–	LC50 (Aedes aegypti larvae [1]): 0.24 ± 0.02 mM; Inhibition (% ± S.E.M.) of trypsin biosynthesis (trypsin biosynthesis; 0.25 μg/injection): 11 ± 1%; Inhibition (% ± S.E.M.) of trypsin biosynthesis (trypsin biosynthesis; 0.5 μg/injection): 14 ± 1%; Inhibition (% ± S.E.M.) of trypsin biosynthesis (trypsin biosynthesis; 1 μg/injection): 31.5 ± 2%; Inhibition (% ± S.E.M.) of trypsin biosynthesis (trypsin biosynthesis; 10 μg/injection): 53 ± 25%
YDAAP [YDAAP]	1.0 ± 0.18 mM	–
MPDYPPPPP [MPDYP5]	>3.0 mM	–
N[C@@H](Cc1ccccc1)C(=O)N[C@@H](CC(=O)O)C(=O)N1CCC[C@H]1C(=O)O [FDP] (H-Phe-Asp-Pro-OH; N-terminus and C-terminus assumed)	1.98 ± 0.6 mM	–
C[C@H](N)C(=O)N[C@@H](C)C(=O)N1CCC[C@H]1C(=O)O [AAP] (H-Ala-Ala-Pro-OH; N-terminus and C-terminus assumed)	1.08 ± 0.07 mM	–
C[C@H](NC(=O)[C@@H](N)Cc1ccc(O)cc1)C(=O)N1CCC[C@H]1C(=O)O [YAP] (H-Tyr-Ala-Pro-OH; N-terminus and C-terminus assumed)	2.3 ± 0.5 mM	–
YDPAPPPPPPR [YDPAP6R]	–	LC50 (Aedes aegypti larvae [1]): > 71.6 mM
YDPAPPPPPP [YDPAP6, reference compound]	0.2 ± 0.02 mM	LC50 (Aedes aegypti larvae [1]): 0.2 ± 0.02 mM; Inhibition (% ± S.E.M.) of trypsin biosynthesis (trypsin biosynthesis; 0.25 μg/injection): 19.5 ± 0.7%; Inhibition (% ± S.E.M.) of trypsin biosynthesis (trypsin biosynthesis; 0.5 μg/injection): 11 ± 1%; Inhibition (% ± S.E.M.) of trypsin biosynthesis (trypsin biosynthesis; 1 μg/injection): 25 ± 2%; Inhibition (% ± S.E.M.) of trypsin biosynthesis (trypsin biosynthesis; 10 μg/injection): 56%
YNPAP [YNPAP]	0.55 ± 0.03 mM	–
C[C@H](NC(=O)[C@@H](N)Cc1ccccc1)C(=O)N1CCC[C@H]1C(=O)O [FAP] (H-Phe-Ala-Pro-OH; N-terminus and C-terminus assumed)	3.8 ± 0.23 mM	–
C[C@H](NC(=O)[C@@H]1CCCN1)C(=O)N1CCC[C@H]1C(=O)O [PAP] (H-Pro-Ala-Pro-OH; N-terminus and C-terminus assumed)	3.17 ± 0.14 mM	–
N[C@@H](Cc1ccc(O)cc1)C(=O)N[C@H](CC(=O)O)C(=O)N1CCC[C@H]1C(=O)O [Y(D)DP] (H-Tyr-[dD]-Pro-OH; N-terminus and C-terminus assumed)	0.28 ± 0.01 mM	–
YDPAL [YDPAL]	0.52 ± 0.03 mM	–
YDPGP [YDPGP]	1.1 ± 0.18 mM	–
YDPLP [YDPLP]	1.5 ± 0.04 mM	–
C[C@H](NC(=O)[C@H](CC(=O)O)NC(=O)[C@@H](N)Cc1ccc(O)cc1)C(=O)O [YDA] (H-Tyr-Asp-Ala-OH; N-terminus and C-terminus assumed)	1.6 ± 0.13 mM	–
YDPAF [YDPAF]	0.33 ± 0.2 mM	–
N[C@@H](Cc1ccccc1)C(=O)N[C@@H](CO)C(=O)N1CCC[C@H]1C(=O)O [FSP] (H-Phe-Ser-Pro-OH; N-terminus and C-terminus assumed)	2.3 ± 0.13 mM	–
C[C@H](NC(=O)[C@H](C)NC(=O)[C@@H]1CCCN1)C(=O)O [PAA] (H-Pro-Ala-Ala-OH; N-terminus and C-terminus assumed)	2.4 ± 0.34 mM	–
YFPAP [YFPAP]	0.64 ± 0.03 mM	–
